In ChEMBL document CHEMBL6120977, “Structure-Affinity-Pharmacokinetics Relationships of Novel 18F-Labeled 1,4-Diazepane Derivatives for Orexin 1 Receptor Imaging” (J Med Chem, 2024):
Each block holds one compound with its values, some of them ahead of it.

What was measured:
Homo sapiens = organism: Homo sapiens; test: Selectivity ratio of IC50 for recombinant human OX2R extracted from HEK293T cell membrane to IC50 for recombinant human OX1R extracted from HEK293T cell membrane
[1] = Selectivity ratio of Ki for OX2R (unknown origin) transfected in CHO cells to Ki for OX1R (unknown origin) transfected in CHO cells; type: cell-based
Orexin receptor type 2 [2] = molecular target: T1, Orexin receptor type 2 (Homo sapiens, UniProt O43614); test: Displacement of [3H]EMPA from recombinant human OX2R extracted from HEK293T membrane by radioligand binding assay; type: cell membranes
T1 sequence (O43614 whole entry): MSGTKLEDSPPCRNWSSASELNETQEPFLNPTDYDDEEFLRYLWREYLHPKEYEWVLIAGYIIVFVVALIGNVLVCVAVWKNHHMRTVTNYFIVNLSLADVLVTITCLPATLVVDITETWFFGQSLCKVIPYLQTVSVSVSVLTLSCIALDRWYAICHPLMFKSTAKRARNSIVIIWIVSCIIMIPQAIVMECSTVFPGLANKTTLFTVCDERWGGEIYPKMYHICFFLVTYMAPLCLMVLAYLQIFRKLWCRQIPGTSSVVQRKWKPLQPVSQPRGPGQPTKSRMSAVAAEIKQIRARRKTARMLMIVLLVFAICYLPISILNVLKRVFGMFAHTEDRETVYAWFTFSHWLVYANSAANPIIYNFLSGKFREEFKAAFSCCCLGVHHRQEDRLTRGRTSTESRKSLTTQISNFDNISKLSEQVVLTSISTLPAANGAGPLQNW

[3] = molecular target: T2, Orexin/Hypocretin receptor type 1 (Homo sapiens, UniProt O43613); test: Displacement of [3H]SB-674042 from recombinant human OX1R extracted from HEK293T membrane by radioligand binding assay; type: cell membranes
T2 sequence (O43613 whole entry): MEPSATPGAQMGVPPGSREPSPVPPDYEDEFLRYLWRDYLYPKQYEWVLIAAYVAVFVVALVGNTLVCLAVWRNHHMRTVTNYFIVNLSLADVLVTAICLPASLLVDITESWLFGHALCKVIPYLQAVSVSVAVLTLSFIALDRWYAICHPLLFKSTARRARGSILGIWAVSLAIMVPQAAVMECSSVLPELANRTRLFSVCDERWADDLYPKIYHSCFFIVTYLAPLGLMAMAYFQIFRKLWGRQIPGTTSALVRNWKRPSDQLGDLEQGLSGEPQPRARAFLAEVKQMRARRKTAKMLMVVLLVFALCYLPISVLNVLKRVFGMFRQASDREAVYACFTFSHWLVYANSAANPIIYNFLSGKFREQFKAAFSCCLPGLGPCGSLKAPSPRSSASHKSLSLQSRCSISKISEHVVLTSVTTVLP

[4] = molecular target: T2, Orexin/Hypocretin receptor type 1; test: Displacement of […]5IBOM from OX1R (unknown origin) transfected in CHO cells assessed as inhibition constant incubated for 1.5 hrs by automated gamma-counter analysis; type: cell-based
Orexin receptor type 2 [5] = molecular target: T1, Orexin receptor type 2; test: Displacement of […]5IBOM from OX2R (unknown origin) transfected in CHO cells assessed as inhibition constant incubated for 1.5 hrs by automated gamma-counter analysis; type: cell-based
[6] = Biodistribution in male ddY mouse liver administered intravenously and measured at 30 mins postinjection by gamma counter analysis; type: ADME, organism-based; settings: in vivo, iv, 0.5 h
[7] = Biodistribution in male ddY mouse liver administered intravenously and measured at 60 mins postinjection by gamma counter analysis; type: ADME, organism-based; settings: in vivo, iv, 1 h
[8] = Biodistribution in male ddY mouse blood administered intravenously and measured at 30 mins postinjection by gamma counter analysis; type: ADME, organism-based; settings: in vivo, iv, 0.5 h
[9] = Biodistribution in male ddY mouse bone administered intravenously and measured at 30 mins postinjection by gamma counter analysis; type: ADME, organism-based, Bone element; settings: in vivo, iv, 0.5 h
[10] = Biodistribution in male ddY mouse heart administered intravenously and measured at 2 mins postinjection by gamma counter analysis; type: ADME, organism-based; settings: in vivo, iv
[11] = Biodistribution in male ddY mouse brain administered intravenously and measured at 60 mins postinjection by gamma counter analysis; type: ADME, organism-based; settings: in vivo, iv, 1 h
[12] = Biodistribution in male ddY mouse intestine administered intravenously and measured at 60 mins postinjection by gamma counter analysis; type: ADME, organism-based; settings: in vivo, iv, 1 h
[13] = Biodistribution in male ddY mouse liver administered intravenously and measured at 2 mins postinjection by gamma counter analysis; type: ADME, organism-based; settings: in vivo, iv
[14] = Biodistribution in male ddY mouse pancreas administered intravenously and measured at 2 mins postinjection by gamma counter analysis; type: ADME, organism-based; settings: in vivo, iv
[15] = Biodistribution in male ddY mouse lung administered intravenously and measured at 2 mins postinjection by gamma counter analysis; type: ADME, organism-based; settings: in vivo, iv
[16] = Biodistribution in male ddY mouse spleen administered intravenously and measured at 30 mins postinjection by gamma counter analysis; type: ADME, organism-based; settings: in vivo, iv, 0.5 h
[17] = Biodistribution in male ddY mouse heart administered intravenously and measured at 30 mins postinjection by gamma counter analysis; type: ADME, organism-based; settings: in vivo, iv, 0.5 h
[18] = Biodistribution in male ddY mouse brain administered intravenously and measured at 10 mins postinjection by gamma counter analysis; type: ADME, organism-based; settings: in vivo, iv
[19] = Biodistribution in male ddY mouse stomach administered intravenously and measured per organ at 30 mins postinjection by gamma counter analysis; type: ADME, organism-based; settings: in vivo, iv, 0.5 h
[20] = Biodistribution in male ddY mouse stomach administered intravenously and measured per organ at 10 mins postinjection by gamma counter analysis; type: ADME, organism-based; settings: in vivo, iv
[21] = Biodistribution in male ddY mouse heart administered intravenously and measured at 60 mins postinjection by gamma counter analysis; type: ADME, organism-based; settings: in vivo, iv, 1 h
[22] = Biodistribution in male ddY mouse pancreas administered intravenously and measured at 10 mins postinjection by gamma counter analysis; type: ADME, organism-based; settings: in vivo, iv
[23] = Biodistribution in male ddY mouse intestine administered intravenously and measured at 10 mins postinjection by gamma counter analysis; type: ADME, organism-based; settings: in vivo, iv
[24] = Biodistribution in male ddY mouse kidney administered intravenously and measured at 30 mins postinjection by gamma counter analysis; type: ADME, organism-based; settings: in vivo, iv, 0.5 h
[25] = Biodistribution in male ddY mouse bone administered intravenously and measured at 10 mins postinjection by gamma counter analysis; type: ADME, organism-based, Bone element; settings: in vivo, iv
[26] = Biodistribution in male ddY mouse lung administered intravenously and measured at 30 mins postinjection by gamma counter analysis; type: ADME, organism-based; settings: in vivo, iv, 0.5 h
[27] = Biodistribution in male ddY mouse liver administered intravenously and measured at 10 mins postinjection by gamma counter analysis; type: ADME, organism-based; settings: in vivo, iv
[28] = Biodistribution in male ddY mouse spleen administered intravenously and measured at 2 mins postinjection by gamma counter analysis; type: ADME, organism-based; settings: in vivo, iv
[29] = Biodistribution in male ddY mouse blood administered intravenously and measured at 2 mins postinjection by gamma counter analysis; type: ADME, organism-based; settings: in vivo, iv
[30] = Biodistribution in male ddY mouse intestine administered intravenously and measured at 30 mins postinjection by gamma counter analysis; type: ADME, organism-based; settings: in vivo, iv, 0.5 h
[31] = Biodistribution in male ddY mouse kidney administered intravenously and measured at 10 mins postinjection by gamma counter analysis; type: ADME, organism-based; settings: in vivo, iv
[32] = Biodistribution in male ddY mouse brain administered intravenously and measured at 30 mins postinjection by gamma counter analysis; type: ADME, organism-based; settings: in vivo, iv, 0.5 h
[33] = Biodistribution in male ddY mouse stomach administered intravenously and measured per organ at 2 mins postinjection by gamma counter analysis; type: ADME, organism-based; settings: in vivo, iv
[34] = Biodistribution in male ddY mouse pancreas administered intravenously and measured at 60 mins postinjection by gamma counter analysis; type: ADME, organism-based; settings: in vivo, iv, 1 h
[35] = Biodistribution in male ddY mouse bone administered intravenously and measured at 2 mins postinjection by gamma counter analysis; type: ADME, organism-based, Bone element; settings: in vivo, iv
[36] = Biodistribution in male ddY mouse pancreas administered intravenously and measured at 30 mins postinjection by gamma counter analysis; type: ADME, organism-based; settings: in vivo, iv, 0.5 h
[37] = Biodistribution in male ddY mouse heart administered intravenously and measured at 10 mins postinjection by gamma counter analysis; type: ADME, organism-based; settings: in vivo, iv
[38] = Biodistribution in male ddY mouse kidney administered intravenously and measured at 60 mins postinjection by gamma counter analysis; type: ADME, organism-based; settings: in vivo, iv, 1 h
[39] = Biodistribution in male ddY mouse intestine administered intravenously and measured at 2 mins postinjection by gamma counter analysis; type: ADME, organism-based; settings: in vivo, iv
[40] = Biodistribution in male ddY mouse lung administered intravenously and measured at 60 mins postinjection by gamma counter analysis; type: ADME, organism-based; settings: in vivo, iv, 1 h
[41] = Biodistribution in male ddY mouse brain administered intravenously and measured at 2 mins postinjection by gamma counter analysis; type: ADME, organism-based; settings: in vivo, iv
[42] = Biodistribution in male ddY mouse blood administered intravenously and measured at 60 mins postinjection by gamma counter analysis; type: ADME, organism-based; settings: in vivo, iv, 1 h
[43] = Biodistribution in male ddY mouse spleen administered intravenously and measured at 60 mins postinjection by gamma counter analysis; type: ADME, organism-based; settings: in vivo, iv, 1 h
[44] = Biodistribution in male ddY mouse stomach administered intravenously and measured per organ at 60 mins postinjection by gamma counter analysis; type: ADME, organism-based; settings: in vivo, iv, 1 h
[45] = Biodistribution in male ddY mouse spleen administered intravenously and measured at 10 mins postinjection by gamma counter analysis; type: ADME, organism-based; settings: in vivo, iv
[46] = Biodistribution in male ddY mouse lung administered intravenously and measured at 10 mins postinjection by gamma counter analysis; type: ADME, organism-based; settings: in vivo, iv
[47] = Biodistribution in male ddY mouse kidney administered intravenously and measured at 2 mins postinjection by gamma counter analysis; type: ADME, organism-based; settings: in vivo, iv
[48] = Biodistribution in male ddY mouse blood administered intravenously and measured at 10 mins postinjection by gamma counter analysis; type: ADME, organism-based; settings: in vivo, iv
[49] = Biodistribution in male ddY mouse bone administered intravenously and measured at 60 mins postinjection by gamma counter analysis; type: ADME, organism-based, Bone element; settings: in vivo, iv, 1 h

Structure (SMILES): Cc1ccc(-n2nccn2)c(C(=O)N2CCCN(c3nc4cc(Cl)ccc4o3)C[C@@H]2C)c1
Ratio IC50 (Homo sapiens): 2.4
Ratio Ki [1]: 8.71
IC50 (Orexin receptor type 2 [2]): 2 nM
IC50 [3]: 0.83 nM
Ki [4]: 1.12 nM
Ki (Orexin receptor type 2 [5]): 9.79 nM

Drug uptake [6]: 14.7 % ID/g
Drug uptake [7]: 7.53 % ID/g
Drug uptake [8]: 1.44 % ID/g
Drug uptake [9]: 13.2 % ID/g
Drug uptake [10]: 7.6 % ID/g
Drug uptake [11]: 0.11 % ID/g
Drug uptake [12]: 16.3 % ID/g
Drug uptake [13]: 13.3 % ID/g
Drug uptake [14]: 5.89 % ID/g
Drug uptake [15]: 6.58 % ID/g
Drug uptake [16]: 0.9 % ID/g
Drug uptake [17]: 1.23 % ID/g
Drug uptake [18]: 0.98 % ID/g
Drug uptake [19]: 1.35 %ID
Drug uptake [20]: 1.65 %ID
Drug uptake [21]: 0.43 % ID/g
Drug uptake [22]: 2.95 % ID/g
Drug uptake [23]: 6.23 % ID/g
Drug uptake [24]: 1.89 % ID/g
Drug uptake [25]: 4.94 % ID/g
Drug uptake [26]: 1.2 % ID/g
Drug uptake [27]: 26.9 % ID/g
Drug uptake [28]: 2.92 % ID/g
Drug uptake [29]: 4.44 % ID/g
Drug uptake [30]: 11.8 % ID/g
Drug uptake [31]: 5.23 % ID/g
Drug uptake [32]: 0.22 % ID/g
Drug uptake [33]: 1.15 %ID
Drug uptake [34]: 0.26 % ID/g
Drug uptake [35]: 3.11 % ID/g
Drug uptake [36]: 0.67 % ID/g
Drug uptake [37]: 3.11 % ID/g
Drug uptake [38]: 0.81 % ID/g
Drug uptake [39]: 3.33 % ID/g
Drug uptake [40]: 0.48 % ID/g
Drug uptake [41]: 2.42 % ID/g
Drug uptake [42]: 1.46 % ID/g
Drug uptake [43]: 0.42 % ID/g
Drug uptake [44]: 0.87 %ID
Drug uptake [45]: 2.38 % ID/g
Drug uptake [46]: 3.43 % ID/g
Drug uptake [47]: 10.3 % ID/g
Drug uptake [48]: 2.91 % ID/g
Drug uptake [49]: 16 % ID/g
Structure (SMILES): Cc1ccc(-n2nccn2)c(C(=O)N2CCCN(c3nc4ccc([18F])cc4s3)C[C@@H]2C)c1
